The TGI is the concentration at which net growth stops. Read a high TGI as lower sensitivity of the cells. Usually GI50 stands for the concentration at which growth is held to half of that of the control.

Several values for one entry are separate records, joined by “and”; a condition that tells them apart may be missing. Equal entries are not always repeated.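 Briefly, cells in 96-well plates were exposed to five compound concentrations for 48 h, and endpoints were estimated by linear interpolation. Here, GI50 denotes the concentration required for 50% inhibition of growth. At the TGI there is no net growth.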

Holding throughout (experiment): DTP human tumour cell line panel, 48 h
The subject of test [1] is OVCAR-8 ovarian.
In test [2] the test system is SF-268 CNS.
For test [3], the system named is HL-60(TB) leukemia.
Test [4] relates to SK-MEL-28 melanoma.
In test [5] the test system is OVCAR-5 ovarian.
The test system of test [6] is CAKI-1 renal.
Test [7] relates to EKVX NSCLC.
For test [8], the system named is NCI-H460 lung.
The test system of test [9] is NCI/ADR-RES ovarian.
Test [10] has as its system MDA-MB-435.

`Cc1nc(Nc2ccc(Cl)cc2)sc1C(=O)Nc1cccc2c(=O)[nH][nH]c(=O)c12`: the TGI in test [1] was > 100 µM; in [2], > 100 µM; in test [3], 45.2 µM; in test [4] it was > 100 µM; in test [5] it was > 100 µM; in test [6], > 100 µM. The total growth inhibition concentration (TGI) turned out to be 44.2 µM in [7] and 88.6 µM in [8].

As to `O=C(CC1(O)CCCCC1)OC1CCCC1`, the concentration for total growth inhibition (TGI) in test [1], in test [2], in test [9], in [10], in test [5] and in test [6] was > 100 µM each time. Further, the TGI in test [7] and in test [8] was > 100 µM throughout.

For `CCNc1ccc2c(c1)C(=O)N(OS(C)(=O)=O)C2=O`, the TGI in test [1], in test [2], in test [9], in test [10], in test [4] and in test [6] was > 100 µM each time. The TGI in test [7] and in [8] was > 100 µM in each case.

Turning to `CCCC(=O)Nc1cc(/C=C/C(=O)N2C[C@@H]3C[C@]34C2=CC(=O)c2[nH]cc(C)c24)n(C)c1`, the GI50 was 0.0447 µM in test [1]; 0.946 µM in test [9]; 0.184 µM in [10]; 0.142 µM in test [5]; 0.0901 µM in test [6]; 0.172 µM in test [7]. Moreover, the 50% growth inhibitory concentration (GI50) in [8] is 0.053 µM. For the same molecule, the total growth inhibition concentration (TGI) is 0.406 µM and 0.285 µM in test [1]; 4.89 µM in test [2]; 6.38 µM and 4.77 µM in [9]; 1.05 µM and 0.471 µM in [10]; 1.6 µM in test [4]; 0.571 µM and 0.529 µM in test [6]. The TGI in test [8] was 2.51 µM and 0.394 µM.

For the molecule `Nc1ccccc1SC(/C=C/NNC1=NC(c2ccccc2)C(c2ccccc2)=NN1)c1ccccc1` (stereo not given), the TGI in [1] is 49 µM; in test [2] it was 17.1 µM; in test [3], 13.1 µM; in [4] it was 27 µM; in [5] it was 37.1 µM; in [6], 26.4 µM. Further, the figures for the concentration for total growth inhibition (TGI) in test [7] and in test [8] were 29 µM and 51.9 µM, respectively.

As for `O=C(O)C(Cc1ccccc1)N1C(=O)/C(=C/C(Cl)=C/c2ccc([N+](=O)[O-])cc2)SC1=S` (stereo not given), the GI50 was 3.13 µM in test [1]; 3.39 µM in [9]; 2.27 µM in test [10]; 2.16 µM in test [4]; 2.82 µM in test [5]; 2.28 µM in [6]. Also, in test [7], the GI50 is 2.59 µM. Also, the TGI in test [1] was > 100 µM; in test [9] it was > 100 µM; in test [10], 6 µM; in test [4] it was 4.68 µM; in test [5], 7.9 µM; in test [6], 5.09 µM. Besides, the TGI in test [7] came out at 7.29 µM.

`Cc1cccc(C=NC23CC4CC(CC(C4)C2)C3)c1`: the TGI in test [1], in test [2], in [3], in test [4], in test [5] and in test [6] was > 100 µM throughout. Moreover, the TGI in [7] and in [8] was > 100 µM in each case.

Turning to `COc1ccc(CN2c3ccccc3Sc3ccccc32)cc1O`, the GI50 in test [1] was 0.508 µM; in [2] it was 0.966 µM; in test [9], 0.291 µM; in [3], 0.257 µM; in test [4] it was 14.4 µM; in test [5], 12.7 µM. Besides, the GI50 is 0.472 µM in test [6], 0.378 µM in test [7] and 0.444 µM in test [8]. The TGI in test [1] was 20.3 µM; in [2], 20.5 µM; in test [9] it was 0.863 µM; in test [3], 0.661 µM; in test [4], 32.2 µM; in test [5] it was 36 µM. Moreover, the TGI was 17.7 µM in [6], 15.9 µM in test [7] and 13.4 µM in test [8].

Consider `N.N.N.N.O=S([O-])[O-].[Co+3].[N-]=[N+]=[N-]`, for which the GI50 in test [1], in test [2], in test [3], in [4], in test [5] and in [7] was > 100 µM each time. For the same molecule, in test [8], the GI50 is > 100 µM. Moreover, the total growth inhibition concentration (TGI) in test [1], in test [2], in test [3], in [4], in test [5] and in test [7] was > 100 µM throughout. Besides, the TGI in test [8] is > 100 µM.

For the molecule `O=C(O)CCN1C(=S)CSC1=S`, the TGI in test [1], in [2], in test [9], in test [10], in test [4] and in [5] was > 100 µM throughout. Also, the TGI in test [6], in [7] and in test [8] was > 100 µM each time.

In the case of `COc1c(OC2OC(C)C(O)C(O)C2O)c(OC)c2oc(-c3ccc(O)cc3)cc(=O)c2c1O` (stereo not given), the GI50 in test [1] was 28 µM; in test [2] it was 33.1 µM; in test [9], 87.2 µM; in [10] it was 29.1 µM; in [4] it was 35.4 µM; in [5], > 100 µM. Further, the GI50 in [6] was 27.6 µM; in test [7], 38.4 µM; in test [8] it was 27.7 µM. For the same molecule, the TGI in test [1] is > 100 µM; in [2] it was > 100 µM; in test [9], > 100 µM; in test [10] it was 78.5 µM; in [4], > 100 µM; in test [5] it was > 100 µM. Further, the concentration for total growth inhibition (TGI) in test [6] is > 100 µM; in test [7] it was > 100 µM; in [8], 81.4 µM.

On to `O=C1c2ccccc2-c2c1c1ccccc1c(=O)n2CCNCCNCCNCCNCCn1c2c(c3ccccc3c1=O)C(=O)c1ccccc1-2`, for which the GI50 is 0.172 µM in test [1]; 0.049 µM in test [2]; > 53 µM in test [9]; 0.216 µM in [3]; 1.95 µM in [4]; > 100 µM in test [5]. Moreover, the figures for the concentration for 50% growth inhibition (GI50) in test [6], in test [7] and in test [8] were 0.26 µM, 0.677 µM and 0.0669 µM, respectively. The TGI in test [1] is 2.69 µM; in [2], 0.808 µM; in test [9], 96.9 µM; in test [3], 2.08 µM; in [4], > 100 µM; in test [5] it was > 100 µM. The TGI in [6] worked out at 2.93 µM; in [7], 2.7 µM; in test [8] it was 1.99 µM.

Consider `COc1cc(C2CC(c3ccc(Cl)cc3)=NN2C(C)=O)ccc1Oc1ccnc2cc(Cl)ccc12` (stereo not given), for which the GI50 in [3], in test [10], in test [5] and in test [6] was > 100 µM in each case. In addition, the TGI in [3], in [10], in test [5] and in [6] was > 100 µM each time.

`COC(OC)c1cccnc1C`: the TGI in test [1], in [2], in test [3], in test [4], in test [5] and in [6] was > 100 µM in each case. The TGI in test [7] and in test [8] was > 100 µM throughout.

Take `O=C(Cc1nc2ccccc2s1)C(=O)Nc1cccc(C(F)(F)F)c1`: the TGI in test [1], in [2], in test [3], in test [4], in [6] and in test [7] was > 100 µM in each case. In addition, the total growth inhibition concentration (TGI) in [8] was > 100 µM.

Consider `O=C1N=C2N=C(c3ccc(Cl)cc3)N(c3ccc(Cl)cc3)N2Sc2ccccc21`, for which the TGI in test [1], in test [2], in [3], in test [4], in test [5] and in test [6] was > 100 µM each time. For the same molecule, the TGI in test [7] and in test [8] was > 100 µM in each case.

In the case of `O=C(Nc1ccccc1)N1C(c2ccccc2)=N[C@@H](c2ccccc2)[C@@H]1c1ccccc1`, the concentration for total growth inhibition (TGI) in test [1] is 45.6 µM; in test [2], 49.2 µM; in test [3] it was 46.5 µM; in test [4], 30.6 µM; in [5], 45.1 µM; in test [6], 48.7 µM. Moreover, the TGI in test [7] and in test [8] was > 100 µM throughout.

Regarding `C=C(c1ccccc1)c1cc2c(=O)[nH]ccc2n1C`, the concentration for total growth inhibition (TGI) in [1] was > 100 µM; in test [2] it was > 100 µM; in [3], 38.1 µM; in [4] it was > 100 µM; in test [5], > 100 µM; in [6] it was > 100 µM. Besides, the TGI in test [7] and in test [8] was > 100 µM in each case.

Turning to `C/C(=C\c1ccccc1)C(=O)c1c(C)cc(C)cc1C`, the TGI in test [1], in [2], in test [3], in [4], in [6] and in [7] was > 100 µM in each case. The concentration for total growth inhibition (TGI) in test [8] was > 100 µM.

As for `O=C(O)C1CC2C=CCC(C2)C1` (stereo not given), the TGI in [1], in test [2], in test [3], in test [4], in test [5] and in test [6] was > 100 µM in each case. Further, the concentration for total growth inhibition (TGI) in test [7] and in test [8] was > 100 µM throughout.

With `COc1cccc(C=NC23CC4CC(CC(C4)C2)C3)c1`, the TGI in [1], in test [2], in test [3], in [4], in [5] and in [6] was > 100 µM each time. Besides, the TGI in test [7] and in [8] was > 100 µM each time.

As to `CCOC(=O)/C=C/c1ccc([N+](=O)[O-])o1`, the GI50 in [1] was 2.91 µM; in test [2], 5.38 µM; in test [3], 2.38 µM; in test [10] it was 2.1 µM; in test [4] it was 2.08 µM; in test [5], 2.95 µM. The GI50 is 2.06 µM in test [6], 24.7 µM in [7] and 18.1 µM in [8]. Also, the TGI in test [1] amounted to 12.3 µM; in test [2], 40.5 µM; in test [3], 6.78 µM; in [10] it was 4.67 µM; in test [4] it was 5.07 µM; in test [5], 8.13 µM. The TGI in test [6] was found to be 4.38 µM; in test [7], 80.7 µM; in test [8] it was 38.9 µM.

In the case of `c1ccc(N2CCN(CCN3CCc4c([nH]c5ccccc45)C3c3cccnc3)CC2)cc1` (stereo not given), the TGI in test [1], in [2], in [3], in test [4], in [5] and in test [6] was > 100 µM throughout. Also, the concentration for total growth inhibition (TGI) in test [7] and in test [8] was > 100 µM throughout.

For the molecule `COc1ccc(/C=C(\C#N)c2cc(OC)c(OC)c(OC)c2)cc1`, the GI50 in [1] was 0.0293 µM; in test [2], 0.0481 µM; in test [3] it was 0.0244 µM; in test [4], 0.0634 µM; in [5], 0.0424 µM; in test [6], 0.0209 µM. Also, the 50% growth inhibitory concentration (GI50) was 0.0656 µM in [7] and 0.0327 µM in [8]. Besides, the total growth inhibition concentration (TGI) in [1] is > 82.8 µM; in [2], > 100 µM; in [3], 0.0661 µM; in test [4], > 100 µM; in test [5], > 100 µM; in test [6], > 100 µM. The results for the total growth inhibition concentration (TGI) in test [7] and in [8] were > 100 µM and 23.6 µM, respectively.

Regarding `COc1ccc(OCC(=O)O)c2c1CCC(C)C2=O` (stereo not given), the TGI in [1], in test [2], in [3], in test [4], in test [5] and in test [6] was > 100 µM in each case. Besides, the TGI in test [7] and in test [8] was > 100 µM throughout.
